This note sets out measurements from patent US20250051344A1, “BIFUNCTIONAL SELECTIVE DEGRADERS OF SMARCA2 AND THERAPEUTIC USES THEREOF” (Nurix Therapeutics, Inc., priority 2023, published 2025).

The target in assay [1] is T1, SMARCA2 (Homo sapiens, UniProt P51531).
T1 construct: endogenous in cells
The assay is described as follows: SMARCA2 Cellular Degradation Assay (Western blot analysis on Jess platform). The conditions noted are these: for DC50 / Dmax: cellular degradation; for Fold Selectivity SMARCA4/2: ratio DC50 SMARCA4 / DC50 SMARCA2. It is filed as cell-based. In a few lines:
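Lysates of cells extracted from tumors were prepared in supplemented RIPA buffer, and 5 μg total protein per capillary was analysed by capillary Western (Jess) with anti-SMARCA2 and anti-β-actin antibodies. SMARCA2 electropherogram area was background-subtracted, normalized to actin, and expressed as percent remaining versus vehicle control.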

Assay [2] deals with T2, SMARCA4 (Homo sapiens, UniProt P51532).
T2 construct: endogenous in cells
T2 sequence (P51532 whole entry, species assumed): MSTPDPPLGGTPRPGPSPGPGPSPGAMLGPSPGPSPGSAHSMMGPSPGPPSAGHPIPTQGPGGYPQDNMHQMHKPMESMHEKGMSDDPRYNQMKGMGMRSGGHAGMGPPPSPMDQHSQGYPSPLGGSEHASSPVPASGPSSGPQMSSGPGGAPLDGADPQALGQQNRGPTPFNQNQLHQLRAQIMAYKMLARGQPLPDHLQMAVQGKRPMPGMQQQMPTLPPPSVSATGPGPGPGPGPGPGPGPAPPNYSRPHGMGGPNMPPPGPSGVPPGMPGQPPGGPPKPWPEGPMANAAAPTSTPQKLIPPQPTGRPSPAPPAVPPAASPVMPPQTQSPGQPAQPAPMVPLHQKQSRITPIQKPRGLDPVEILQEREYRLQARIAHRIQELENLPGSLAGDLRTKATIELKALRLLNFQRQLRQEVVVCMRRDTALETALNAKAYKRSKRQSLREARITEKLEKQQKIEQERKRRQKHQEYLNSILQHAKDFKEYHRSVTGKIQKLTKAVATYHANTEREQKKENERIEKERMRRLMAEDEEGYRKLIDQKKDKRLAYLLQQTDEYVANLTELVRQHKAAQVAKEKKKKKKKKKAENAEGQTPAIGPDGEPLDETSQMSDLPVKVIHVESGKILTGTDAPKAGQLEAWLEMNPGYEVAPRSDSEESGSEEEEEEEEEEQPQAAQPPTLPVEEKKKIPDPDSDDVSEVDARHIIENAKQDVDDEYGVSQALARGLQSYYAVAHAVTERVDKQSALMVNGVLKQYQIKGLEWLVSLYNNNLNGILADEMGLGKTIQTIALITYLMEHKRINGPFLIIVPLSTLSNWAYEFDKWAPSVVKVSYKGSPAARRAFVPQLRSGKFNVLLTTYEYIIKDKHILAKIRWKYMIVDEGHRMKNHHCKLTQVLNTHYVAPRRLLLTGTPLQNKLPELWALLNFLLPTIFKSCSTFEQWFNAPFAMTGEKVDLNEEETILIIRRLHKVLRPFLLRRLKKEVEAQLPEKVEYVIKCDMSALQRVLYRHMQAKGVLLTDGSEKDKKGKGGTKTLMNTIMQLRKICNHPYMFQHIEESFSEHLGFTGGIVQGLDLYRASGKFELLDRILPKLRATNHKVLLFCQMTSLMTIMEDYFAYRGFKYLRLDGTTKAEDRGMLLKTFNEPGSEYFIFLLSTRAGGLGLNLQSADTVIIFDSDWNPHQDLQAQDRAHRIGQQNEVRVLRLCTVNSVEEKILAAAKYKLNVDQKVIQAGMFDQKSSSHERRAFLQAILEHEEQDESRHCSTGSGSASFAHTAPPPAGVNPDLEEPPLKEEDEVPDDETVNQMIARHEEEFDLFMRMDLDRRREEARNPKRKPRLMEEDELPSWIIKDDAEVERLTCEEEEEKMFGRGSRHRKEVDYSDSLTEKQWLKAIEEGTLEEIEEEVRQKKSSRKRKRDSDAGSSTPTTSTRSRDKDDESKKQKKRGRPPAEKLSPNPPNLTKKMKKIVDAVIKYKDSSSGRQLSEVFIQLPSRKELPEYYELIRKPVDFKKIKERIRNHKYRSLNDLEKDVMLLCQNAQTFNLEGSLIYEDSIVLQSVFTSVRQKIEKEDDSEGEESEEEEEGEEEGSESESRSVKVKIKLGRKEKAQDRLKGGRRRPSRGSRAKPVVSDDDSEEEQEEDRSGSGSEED
Nature of the assay: Cellular degradation assay, SMARCA4 (Table 1). It is filed as cell-based.

T1 sequence (P51531 whole entry, species assumed): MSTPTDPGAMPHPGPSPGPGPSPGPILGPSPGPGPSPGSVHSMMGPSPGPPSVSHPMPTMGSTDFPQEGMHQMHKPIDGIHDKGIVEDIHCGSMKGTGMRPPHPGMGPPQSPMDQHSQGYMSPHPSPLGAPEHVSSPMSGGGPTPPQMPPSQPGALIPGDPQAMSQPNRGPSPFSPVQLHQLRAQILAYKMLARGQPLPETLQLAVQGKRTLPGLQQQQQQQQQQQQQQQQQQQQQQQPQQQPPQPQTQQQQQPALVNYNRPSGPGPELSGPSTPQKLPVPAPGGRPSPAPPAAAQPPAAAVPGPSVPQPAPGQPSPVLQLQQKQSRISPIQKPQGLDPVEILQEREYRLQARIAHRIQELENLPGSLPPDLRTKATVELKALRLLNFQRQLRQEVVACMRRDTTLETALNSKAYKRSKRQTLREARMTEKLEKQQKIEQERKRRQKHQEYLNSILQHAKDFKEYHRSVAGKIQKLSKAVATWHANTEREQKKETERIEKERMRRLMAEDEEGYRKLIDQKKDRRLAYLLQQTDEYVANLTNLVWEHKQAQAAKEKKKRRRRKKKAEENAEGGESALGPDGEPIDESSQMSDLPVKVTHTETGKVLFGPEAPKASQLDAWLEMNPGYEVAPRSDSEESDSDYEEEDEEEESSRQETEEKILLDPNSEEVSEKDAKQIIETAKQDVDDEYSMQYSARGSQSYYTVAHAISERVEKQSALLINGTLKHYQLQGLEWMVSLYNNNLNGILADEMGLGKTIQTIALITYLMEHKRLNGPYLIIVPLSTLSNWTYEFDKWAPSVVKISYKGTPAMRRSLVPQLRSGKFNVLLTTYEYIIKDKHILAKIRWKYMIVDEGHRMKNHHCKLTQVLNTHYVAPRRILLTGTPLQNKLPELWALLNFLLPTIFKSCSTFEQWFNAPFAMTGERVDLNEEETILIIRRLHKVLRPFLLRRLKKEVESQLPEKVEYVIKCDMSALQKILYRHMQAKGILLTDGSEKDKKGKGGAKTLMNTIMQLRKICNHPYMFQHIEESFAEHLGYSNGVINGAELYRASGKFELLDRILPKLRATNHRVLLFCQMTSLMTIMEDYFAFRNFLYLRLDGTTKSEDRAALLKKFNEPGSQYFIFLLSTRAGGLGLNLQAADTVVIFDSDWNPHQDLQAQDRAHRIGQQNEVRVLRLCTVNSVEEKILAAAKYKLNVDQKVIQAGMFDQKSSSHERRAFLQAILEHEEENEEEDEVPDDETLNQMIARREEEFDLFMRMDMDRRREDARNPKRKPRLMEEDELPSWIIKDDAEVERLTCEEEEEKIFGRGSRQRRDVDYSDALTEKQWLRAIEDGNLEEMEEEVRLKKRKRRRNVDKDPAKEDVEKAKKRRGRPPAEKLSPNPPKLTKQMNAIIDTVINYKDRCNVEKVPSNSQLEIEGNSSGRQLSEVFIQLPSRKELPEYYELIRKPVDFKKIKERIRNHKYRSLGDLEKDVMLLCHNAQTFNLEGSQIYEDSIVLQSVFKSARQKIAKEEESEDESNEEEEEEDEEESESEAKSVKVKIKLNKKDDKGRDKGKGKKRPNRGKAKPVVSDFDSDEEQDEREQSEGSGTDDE

For `N#CC1(CN2CCN(c3ccc([C@@H]4CCC(=O)NC4=O)cc3)CC2)CC12CCN(C(=O)C1(c3ccccc3)CCN(c3cnnc(-c4ccccc4O)c3)CC1)CC2` (mixture of isomers) [Example 171, rac-1-[(4-{4-[(3R)-2,6-dioxopiperidin-3-yl]phenyl}piperazin-1-yl)methyl]-6-{1-[6-(2-hydroxyphenyl)pyridazin-4-yl]-4-phenylpiperidine-4-carbonyl}-6-azaspiro[2.5]octane-1-carbonitrile], in assay [1], it took 28.5 nM to reach half-maximal degradation (DC50), the Dmax is 69.5% and the “Fold Selectivity SMARCA4/2” value came to 35. Further, in assay [2], the DC50 was determined as 1000 nM and the Dmax was 41.4%.
For `COC1(C(=O)N2CC3(CN(CCC4CCN(c5ccc(C6CCC(=O)NC6=O)cc5)CC4)C3)C2)CCN(c2cnnc(-c3ccccc3O)c2)CC1` (racemic) [Example 82, rac-3-(4-(4-(2-(6-(1-(6-(2-hydroxyphenyl)pyridazin-4-yl)-4-methoxypiperidine-4-carbonyl)-2,6-diazaspiro[3.3]heptan-2-yl)ethyl)piperidin-1-yl)phenyl)piperidine-2,6-dione], in assay [1], the DC50 was 11.3 nM, the Dmax amounted to 71.2% and the “Fold Selectivity SMARCA4/2” value came to 883. Besides, the Dmax in assay [2] is 23.8%.
As to `O=C1CC[C@H](c2ccc(N3CCC(CN[C@H]4CC[C@H](NC(=O)C5(c6ccccc6)CCN(c6cnnc(-c7ccccc7O)c6)CC5)CC4)CC3)cc2)C(=O)N1` (racemic) [Example 175, 1-[6-(2-hydroxyphenyl)pyridazin-4-yl]-4-phenyl-N-[(1r,4r)-4-{[(1-{4-[(3RS)-2,6-dioxopiperidin-3-yl]phenyl}piperidin-4-yl)methyl]amino}cyclohexyl]piperidine-4-carboxamide], in assay [1], the DC50 was 29.8 nM, the Dmax came out at 60.2% and the “Fold Selectivity SMARCA4/2” value came out at 335. In assay [2], this compound had a Dmax of 35.6%.
The corresponding values for `O=C1CC[C@@H](c2ccc(N3CCC(CN4CCCC(CNC(=O)C5(c6ccccc6)CCN(c6cnnc(-c7ccccc7O)c6)CC5)C4)CC3)cc2)C(=O)N1` (stereo partly drawn) [Example 10, N-({1-[(1-{4-[(3S)-2,6-dioxopiperidin-3-yl]phenyl}piperidin-4-yl)methyl]piperidin-3-yl}methyl)-1-[6-(2-hydroxyphenyl)pyridazin-4-yl]-4-phenylpiperidine-4-carboxamide] are 80.1 nM, 59.3%, 124.82 and 25.6%.
In the case of `COc1cccc(C2(C(=O)NC3CCN(CC4CCN(c5ccc([C@H]6CCC(=O)NC6=O)cc5)CC4)C4(CCC4)C3)CCN(c3cnnc(-c4ccccc4O)c3)CC2)c1` (stereo partly drawn) [Example 169, N-{5-[(1-{4-[(3R)-2,6-dioxopiperidin-3-yl]phenyl}piperidin-4-yl)methyl]-5-azaspiro[3.5]nonan-8-yl}-1-[6-(2-hydroxyphenyl)pyridazin-4-yl]-4-(3-methoxyphenyl)piperidine-4-carboxamide], in assay [1], it took 6.28 nM to reach half-maximal degradation (DC50), the Dmax came to 86.6% and the “Fold Selectivity SMARCA4/2” value is given as 17. In addition, in assay [2], the DC50 turned out to be 104 nM and the greatest degradation seen (Dmax) came out at 62%.
`CN(C(=O)C1(OC2CC2)CCN(c2cnnc(-c3ccccc3O)c2)CC1)C1CCN(CCC2CCN(c3ccc([C@H]4CCC(=O)NC4=O)c(F)c3)CC2)CC1` (racemic) [Example 70, rac-(r)-4-cyclopropoxy-n-(1-(2-(1-(4-(2,6-dioxopiperidin-3-yl)-3-fluorophenyl)piperidin-4-yl)ethyl)piperidin-4-yl)-1-(6-(2-hydroxyphenyl)pyridazin-4-yl)-n-methylpiperidine-4-carboxamide]: in assay [1], it took 8.6 nM to reach half-maximal degradation (DC50), the Dmax worked out at 81.4% and the “Fold Selectivity SMARCA4/2” value turned out to be 1163. In addition, in assay [2], the Dmax turned out to be 35.1%.
For `O=C1CC[C@@H](c2ccc(N3CCC(CN4CC5(C4)CN(C(=O)C4(c6ccccc6)CCN(c6cnnc(-c7ccccc7O)c6)CC4)C5)CC3)cc2)C(=O)N1` [Example 8, (3S)-3-(4-{4-[(6-{1-[6-(2-hydroxyphenyl)pyridazin-4-yl]-4-phenylpiperidine-4-carbonyl}-2,6-diazaspiro[3.3]heptan-2-yl)methyl]piperidin-1-yl}phenyl)piperidine-2,6-dione], in that order: 41.4 nM, 75.1%, 241.66 and 44.6%.
Turning to `O=C1CCC(c2ccc(N3CCC(F)(CCN4CC5(C4)CN(C(=O)C4(c6ccccc6)CCN(c6cnnc(-c7ccccc7O)c6)CC4)C5)CC3)cc2)C(=O)N1` (racemic) [Example 122, rac-(3R)-3-(4-{4-fluoro-4-[2-(6-{1-[6-(2-hydroxyphenyl)pyridazin-4-yl]-4-phenylpiperidine-4-carbonyl}-2,6-diazaspiro[3.3]heptan-2-yl)ethyl]piperidin-1-yl}phenyl)piperidine-2,6-dione], in assay [1], the DC50 came to 9.13 nM, the Dmax stood at 73.6% and the “Fold Selectivity SMARCA4/2” value turned out to be 1095. The Dmax in assay [2] came to 34.8%.
Regarding `C[C@@H](Oc1ccc(C2CCC(=O)NC2=O)cc1)C1CCN(C(=O)C2(c3ccccc3)CCN(c3cnnc(-c4ccccc4O)c3)CC2)CC1` (mixture of isomers) [Example 3, (3RS)-3-{4-[(1R)-1-(1-{1-[6-(2-hydroxyphenyl)pyridazin-4-yl]-4-phenylpiperidine-4-carbonyl}piperidin-4-yl)ethoxy]phenyl}piperidine-2,6-dione], the values for the Dmax in assay [1] and in assay [2] were 54.2% and 17.5%, respectively. The “Fold Selectivity SMARCA4/2” value in assay [1] came out at 1.
As for `O=C1CCC(c2c(F)cc(N3CCC(CN4CC[C@@H](NC(=O)C5(c6ccccc6)CCN(c6cnnc(-c7ccccc7O)c6)CC5)CC45CCC5)CC3)cc2F)C(=O)N1` (mixture of isomers) [Example 188, N-[(8RS&)-5-[(1-{4-[(3RS)-2,6-dioxopiperidin-3-yl]-3,5-difluorophenyl}piperidin-4-yl)methyl]-5-azaspiro[3.5]nonan-8-yl]-1-[6-(2-hydroxyphenyl)pyridazin-4-yl]-4-phenylpiperidine-4-carboxamide], in assay [1], half-maximal degradation (DC50) was put at 1.71 nM, the Dmax worked out at 90.6% and the “Fold Selectivity SMARCA4/2” value is reported as 143. In assay [2], this compound yielded a DC50 of 245 nM and a Dmax of 57.8%.
The corresponding values for `CCCN(C(=O)C1(c2ccccc2)CCN(c2cnnc(-c3ccccc3O)c2)CC1)C1CCN(CCC2CCN(c3ccc([C@H]4CCC(=O)NC4=O)cc3)CC2)CC1` [Example 100, N-{1-[2-(1-{4-[(3R)-2,6-dioxopiperidin-3-yl]phenyl}piperidin-4-yl)ethyl]piperidin-4-yl}-1-[6-(2-hydroxyphenyl)pyridazin-4-yl]-4-phenyl-n-propylpiperidine-4-carboxamide] are 3.4 nM, 92.4%, 34, 115 nM and 66.4%.
`O=C1CCC(Nc2ccc(C3CCN(CC4CCC45CN(C(=O)C4(c6ccccc6)CCN(c6cnnc(-c7ccccc7O)c6)CC4)C5)CC3)cc2)C(=O)N1` (racemic) [Example 177, rac-(3R)-3-[(4-{1-[(2-{1-[6-(2-hydroxyphenyl)pyridazin-4-yl]-4-phenylpiperidine-4-carbonyl}-2-azaspiro[3.3]heptan-5-yl)methyl]piperidin-4-yl}phenyl)amino]piperidine-2,6-dione]: in assay [1], it took 3.53 nM to reach half-maximal degradation (DC50), the Dmax was determined as 71.5% and the “Fold Selectivity SMARCA4/2” value was 6. In addition, in assay [2], the DC50 is 21.6 nM and the Dmax came out at 54.5%.
